We go through 28 compounds from patent US20110190503A1, “Thiazolopyridin-2-yloxy-phenyl and thiazolopyrazin-2-yloxy-phenyl amines as modulators of leukotriene A4 hydrolase” (Janssen Pharmaceutical NV, priority 2008, published 2011).

For assay [1], the target named is T1, recombinant human LTA4 hydrolase (rhLTA4H) (Homo sapiens, UniProt P09960).
T1 construct: made in house; host or cells: Spodoptera frugiperda (Sf-9) cells, recombinant baculovirus (pFastBac1)
T1 sequence (P09960 1-611): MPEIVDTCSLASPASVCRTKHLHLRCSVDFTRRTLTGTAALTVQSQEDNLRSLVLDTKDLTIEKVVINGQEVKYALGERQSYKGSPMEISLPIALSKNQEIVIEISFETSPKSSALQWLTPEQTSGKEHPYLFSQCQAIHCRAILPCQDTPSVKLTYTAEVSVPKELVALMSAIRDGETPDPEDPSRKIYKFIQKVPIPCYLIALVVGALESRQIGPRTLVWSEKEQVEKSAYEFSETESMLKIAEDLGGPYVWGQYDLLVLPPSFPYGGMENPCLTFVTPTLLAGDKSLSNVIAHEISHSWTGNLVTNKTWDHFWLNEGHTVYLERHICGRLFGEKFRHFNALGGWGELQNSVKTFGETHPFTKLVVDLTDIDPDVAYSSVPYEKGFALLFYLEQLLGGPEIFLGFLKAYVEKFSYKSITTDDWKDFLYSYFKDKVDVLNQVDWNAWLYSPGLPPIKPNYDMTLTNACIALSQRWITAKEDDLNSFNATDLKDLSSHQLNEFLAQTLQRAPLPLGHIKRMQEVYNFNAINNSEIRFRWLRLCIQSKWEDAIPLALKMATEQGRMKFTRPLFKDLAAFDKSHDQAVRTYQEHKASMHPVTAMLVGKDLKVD
Put plainly: Recombinant human LTA4 hydrolase assay for LTA4 hydrolase inhibitor activity. Conditions: rhLTA4H, LTA4 substrate, LTB4 by immunoassay; single determination or average; read-out: IC50. Format: biochemical. The method, boiled down: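 LTB4 formed from LTA4 substrate (free acid from the methyl ester) was quantified by enzyme immunoassay after a 30 min rt reaction. Enzyme was 10 ng Sf-9-expressed human LTA4 hydrolase, pre-incubated 10 min with compound.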

In assay [2] the test system is LTB4 production by calcium ionophore-stimulated murine blood. In words: LTB4 production by calcium ionophore-stimulated murine blood for LTA4H inhibitor activity. Conditions: Mus musculus; murine blood diluted 1 in 15, calcium ionophore A23187, LTB4 by immunoassay; read-out: IC50. Format: cell-based, CD-1 mice. The method, then:
Assay 2: LTB4 Production by Calcium Ionophore-Stimulated Murine Blood for LTA4H Inhibitor Activity
CD-1 mice were sacrificed, and blood was collected in heparin-containing syringes by cardiac puncture. […] After the microtiter plate contents were incubated for 15 min at 37° C. in a humidified incubator, calcium ionophore A23187 (Sigma Chemical Co., St. Louis, Mo.) was added to each sample well (final concentration=7 μg/mL). The incubation was continued under the same conditions for an additional 30 min to allow LTB4 formation. The reaction was terminated by centrifugation (833×g, 10 min at 4° C.), and supernatants were analyzed for LTB4 by a commercially available enzyme-linked immunoassay (Cayman Chemical Co.) according to the manufacturer's instructions. Positive controls, under essentially identical conditions but without addition of an inhibitor compound, and negative unstimulated controls, containing all assay components except calcium ionophore, were routinely run in each experiment. […] The values presented here are the result of a single determination or an average of two or more determinations, as indicated in parentheses following each value. For compounds tested three or more times, the average value is followed by the standard deviation

Regarding `c1cnc(OC2CCN(CCOc3ccc(Oc4nc5ncccc5s4)cc3)CC2)nc1` [Example 1, 2-(4-{2-[4-(Pyrimidin-2-yloxy)piperidin-1-yl]ethoxy}phenoxy)[1,3]thiazolo[4,5-b]pyridine], the IC50 is 1 nM in assay [1] and 150 nM in assay [2].
As for `O=C(O)C1CCN(CCc2ccc(Oc3nc4ncccc4s3)cc2)CC1` [Example 81, 1-{2-[4-([1,3]Thiazolo[4,5-b]pyridin-2-yloxy)phenyl]ethyl}piperidine-4-carboxylic acid], the values for the IC50 in assay [1] and in assay [2] were 27 nM and 4250 nM, respectively.
The corresponding values for `C[C@H]1COCCN1Cc1ccc(Oc2nc3ncccc3s2)cc1` [Example 88, 2-(4-{[(3S)-3-Methylmorpholin-4-yl]methyl}phenoxy)[1,3]thiazolo[4,5-b]pyridine] are 8 nM and 50 nM.
For `OC1CCN(Cc2ccc(Oc3nc4ncccc4s3)cc2)CC1` [Example 137, 1-[4-([1,3]Thiazolo[4,5-b]pyridin-2-yloxy)benzyl]piperidin-4-ol] the same measures were 8 nM and 5.6 nM.
As to `OC1(c2ccc(Cl)cc2)CCN(CCOc2ccc(Oc3nc4ncccc4s3)cc2)CC1` [Example 30, 4-(4-Chlorophenyl)-1-{2-[4-([1,3]thiazolo[4,5-b]pyridin-2-yloxy)phenoxy]ethyl}piperidin-4-ol], the half-inhibitory concentration (IC50) came out at 30 nM in assay [1] and 150 nM in assay [2].
On to `NC(=O)N1C[C@H]2CC[C@@H](C1)N2Cc1ccc(Oc2nc3ncccc3s2)cc1` [Example 117, meso-8-[4-([1,3]Thiazolo[4,5-b]pyridin-2-yloxy)benzyl]-3,8-diazabicyclo[3.2.1]octane-3-carboxamide], for which the IC50 in assay [1] came to 9 nM; in assay [2], 18 nM.
Regarding `OC1(c2ccccc2)CCN(Cc2ccc(Oc3nc4ncccc4s3)cc2)CC1` [Example 105, 4-Phenyl-1-[4-([1,3]thiazolo[4,5-b]pyridin-2-yloxy)benzyl]piperidin-4-ol], the IC50 in assay [1] was determined as 0.53 nM; in assay [2], 15 nM.
With `c1cncc(OC2CCN(CCOc3ccc(Oc4nc5ncccc5s4)cc3)CC2)c1` [Example 4, 2-(4-{2-[4-(Pyridin-3-yloxy)piperidin-1-yl]ethoxy}phenoxy)[1,3]thiazolo[4,5-b]pyridine], the IC50 in assay [1] stood at 9 nM; in assay [2], 54 nM.
Turning to `CC(=O)N1C[C@@H]2C[C@H]1CN2Cc1ccc(Oc2nc3cc(F)cnc3s2)cc1` [Example 123, 2-(4-{[(1S,4S)-5-Acetyl-2,5-diazabicyclo[2.2.1]hept-2-yl]methyl}phenoxy)-6-fluoro[1,3]thiazolo[5,4-b]pyridine], the concentration for half-maximal inhibition (IC50) in assay [1] is 180 nM.
Same read-out and setting: for `Cc1cnc2nc(Oc3ccc(OCCN4CCC(C(=O)N5CCOCC5)CC4)cc3)sc2c1` [Example 145, 6-Methyl-2-(4-{2-[4-(morpholin-4-ylcarbonyl)piperidin-1-yl]ethoxy}phenoxy)[1,3]thiazolo[4,5-b]pyridine] the value was 275 nM; for `CC(=O)N1CC2CN(CCc3ccc(Oc4nc5cccnc5s4)cc3)CC2C1` (stereo not drawn) [Example 69, 2-{4-[2-(5-Acetylhexahydropyrrolo[3,4-c]pyrrol-2(1H)-yl)ethyl]phenoxy}[1,3]thiazolo[5,4-b]pyridine], 120 nM.
Still for that read-out and setting: then `O=C1CCCN1C1CCN(Cc2ccc(Oc3nc4cccnc4s3)cc2)CC1` [Example 112, 1-{1-[4-([1,3]Thiazolo[5,4-b]pyridin-2-yloxy)benzyl]piperidin-4-yl}pyrrolidin-2-one], with 370 nM.
On to `O=C(O)C1CCN(Cc2ccc(Oc3nc4cccnc4s3)cc2)CC1` [Example 132, 1-[4-([1,3]Thiazolo[5,4-b]pyridin-2-yloxy)benzyl]piperidine-4-carboxylic acid], for which the concentration for half-maximal inhibition (IC50) in assay [1] stood at 1000 nM.
For `Clc1cnc2nc(Oc3ccc(CN4CCCCC4)cc3)sc2c1` [Example 279, 6-Chloro-2-(4-piperidin-1-ylmethyl-phenoxy)[1,3]thiazolo[4,5-b]pyridine], the concentration for half-maximal inhibition (IC50) in assay [2] was 550 nM.
For `CC(=O)N1[C@@H]2CC[C@H]1C[C@H](NCCc1ccc(Oc3nc4ncccc4s3)cc1)C2` [Example 214, meso-(3-exo)-8-Acetyl-N-{2-[4-([1,3]thiazolo[4,5-b]pyridin-2-yloxy)phenyl]ethyl}-8-azabicyclo[3.2.1]octan-3-amine], the IC50 in assay [1] turned out to be 3 nM.
Regarding `NC(=O)N1CC2CN(CCc3ccc(Oc4nc5ccncc5s4)cc3)CC2C1` (stereo not drawn) [Example 246, 5-{2-[4-([1,3]Thiazolo[5,4-c]pyridin-2-yloxy)phenyl]ethyl}hexahydropyrrolo[3,4-c]pyrrole-2(1H)-carboxamide], the IC50 in assay [1] was 331 nM.
Still for that read-out and setting: for `O=C(C1CC1)N1CCN(CCc2ccc(Oc3nc4ncc(Cl)cc4s3)cc2)CC1` [Example 197, 6-Chloro-2-[(4-{2-[4-(cyclopropylcarbonyl)piperazin-1-yl]ethyl}phenyl)oxy][1,3]thiazolo[4,5-b]pyridine] the value was 360 nM; for `c1ccc(CC2CCN(CCc3ccc(Oc4nc5ncccc5s4)cc3)CC2)cc1` [Example 63, 2-{4-[2-(4-Benzylpiperidin-1-yl)ethyl]phenoxy}[1,3]thiazolo[4,5-b]pyridine], 16 nM.
Same read-out and setting: then `O=C(O)CN(Cc1ccccc1)Cc1ccc(Oc2nc3ncccc3s2)cc1` [Example 274, N-Benzyl-N-[4-([1,3]thiazolo[4,5-b]pyridin-2-yloxy)benzyl]glycine], with 919 nM; and `O=C(c1ccccn1)N1CCN(Cc2ccc(Oc3nc4ccncc4s3)cc2)CC1` [Example 217, 2-(4-{[4-(Pyridin-2-ylcarbonyl)piperazin-1-yl]methyl}phenoxy)[1,3]thiazolo[5,4-c]pyridine], with 2510 nM.
Still for that read-out and setting: for `CS(=O)(=O)N[C@@H]1CC2CC[C@@H](C1)N2CCc1ccc(Oc2nc3cccnc3s2)cc1` [Example 194, meso-N-[(3-exo)-8-{2-[4-([1,3]Thiazolo[5,4-b]pyridin-2-yloxy)phenyl]ethyl}-8-azabicyclo[3.2.1]oct-3-yl]methanesulfonamide] the value was 92 nM; for `CC(=O)N[C@H]1C[C@H]2CC[C@@H](C1)N2Cc1ccc(Oc2nc3ccncc3s2)cc1` [Example 115, meso-N-{(3-endo)-8-[4-([1,3]Thiazolo[5,4-c]pyridin-2-yloxy)benzyl]-8-azabicyclo[3.2.1]oct-3-yl}acetamide], 320 nM.
As for `Cc1ccnc2nc(Oc3ccc(CN4CCN(c5ccncc5)CC4)cc3)sc12` [Example 168, 7-Methyl-2-({4-[(4-pyridin-4-ylpiperazin-1-yl)methyl]phenyl}oxy)[1,3]thiazolo[4,5-b]pyridine], the IC50 in assay [1] worked out at 647 nM.
Still for that read-out and setting: for `c1ccc(OC2CCN(CCOc3ccc(Oc4nc5ncccc5s4)cc3)CC2)cc1` [Example 8, 2-{4-[2-(4-Phenoxypiperidin-1-yl)ethoxy]phenoxy}[1,3]thiazolo[4,5-b]pyridine] the value was 130 nM; for `FC(F)(F)C1CCN(CCOc2ccc(Oc3nc4cnccc4s3)cc2)CC1` [Example 164, 2-{[4-({2-[4-(Trifluoromethyl)piperidin-1-yl]ethyl}oxy)phenyl]oxy}[1,3]thiazolo[4,5-c]pyridine], 45 nM; for `CS(=O)(=O)N1C[C@H]2CC[C@@H](C1)N2CCOc1ccc(Oc2nc3ncccc3s2)cc1` [Example 213, meso-2-(4-{2-[3-(Methylsulfonyl)-3,8-diazabicyclo[3.2.1]oct-8-yl]ethoxy}phenoxy)[1,3]thiazolo[4,5-b]pyridine], 34 nM.
Regarding `Cc1ccnc2nc(Oc3ccc(OCCN4CCC(O)(c5ccccn5)CC4)cc3)sc12` [Example 158, 1-(2-{4-[(7-Methyl[1,3]thiazolo[4,5-b]pyridin-2-yl)oxy]phenoxy}ethyl)-4-pyridin-2-ylpiperidin-4-ol], the IC50 in assay [1] came to 194 nM.
Still for that read-out and setting: then `CCCN(CCC)CCc1ccc(Oc2nc3cnccc3s2)cc1` [Example 196, N-Propyl-N-{2-[4-([1,3]thiazolo[4,5-c]pyridin-2-yloxy)phenyl]ethyl}propan-1-amine], with 87 nM.

Usually IC50 stands for the point on the concentration scale where inhibition reaches its midpoint.
